Numbers after ± are expanded uncertainties.
Test: xn = mol fraction of the nth substance listed
Conditions: 101 kPa, Liquid, Vibrating tube method

SMILES: NC=O [formamide] + O
- mass density (288.15 K, x1 = 0.7495): 1122.53 ± 0.15 kg/m3
- mass density (288.15 K, x1 = 0.7931): 1125.6 ± 0.16 kg/m3
- mass density (288.15 K, x1 = 0.8601): 1129.96 ± 0.17 kg/m3
- mass density (288.15 K, x1 = 0.8996): 1132.4 ± 0.18 kg/m3
- mass density (288.15 K, x1 = 0.948): 1135.23 ± 0.18 kg/m3
- mass density (288.15 K, x1 = 0.9753): 1136.78 ± 0.19 kg/m3
- mass density (288.15 K, x1 = 0.9847): 1137.31 ± 0.19 kg/m3
- mass density (288.15 K, x1 = 0.9897): 1137.59 ± 0.19 kg/m3
- mass density (288.15 K, x1 = 0.9959): 1137.94 ± 0.2 kg/m3
- mass density (288.15 K, x1 = 1): 1138.17 ± 0.19 kg/m3
- mass density (298.15 K, x1 = 0.00244): 997.942 ± 0.044 kg/m3
- mass density (298.15 K, x1 = 0.00515): 998.905 ± 0.044 kg/m3
- mass density (298.15 K, x1 = 0.0086): 1000.14 ± 0.044 kg/m3
- mass density (298.15 K, x1 = 0.02032): 1004.2 ± 0.046 kg/m3
- mass density (298.15 K, x1 = 0.03478): 1009 ± 0.049 kg/m3
- mass density (298.15 K, x1 = 0.04976): 1013.73 ± 0.052 kg/m3
- mass density (298.15 K, x1 = 0.06674): 1018.77 ± 0.055 kg/m3
- mass density (298.15 K, x1 = 0.08229): 1023.18 ± 0.057 kg/m3
- mass density (298.15 K, x1 = 0.1171): 1032.35 ± 0.065 kg/m3
- mass density (298.15 K, x1 = 0.1745): 1045.52 ± 0.073 kg/m3
- mass density (298.15 K, x1 = 0.2169): 1053.94 ± 0.079 kg/m3
- mass density (298.15 K, x1 = 0.2557): 1060.92 ± 0.084 kg/m3
- mass density (298.15 K, x1 = 0.3026): 1068.56 ± 0.09 kg/m3
- mass density (298.15 K, x1 = 0.351): 1075.56 ± 0.096 kg/m3
- mass density (298.15 K, x1 = 0.4027): 1082.34 ± 0.1 kg/m3
- mass density (298.15 K, x1 = 0.4487): 1087.78 ± 0.11 kg/m3
- mass density (298.15 K, x1 = 0.4886): 1092.05 ± 0.11 kg/m3
- mass density (298.15 K, x1 = 0.5601): 1099.14 ± 0.12 kg/m3
- mass density (298.15 K, x1 = 0.5916): 1102.04 ± 0.13 kg/m3
- mass density (298.15 K, x1 = 0.6674): 1108.34 ± 0.14 kg/m3
- mass density (298.15 K, x1 = 0.7066): 1111.34 ± 0.14 kg/m3
- mass density (298.15 K, x1 = 0.7495): 1114.37 ± 0.15 kg/m3
- mass density (298.15 K, x1 = 0.7931): 1117.37 ± 0.15 kg/m3
- mass density (298.15 K, x1 = 0.8601): 1121.65 ± 0.17 kg/m3
- mass density (298.15 K, x1 = 0.8996): 1124.05 ± 0.17 kg/m3
- mass density (298.15 K, x1 = 0.948): 1126.82 ± 0.18 kg/m3
- mass density (298.15 K, x1 = 0.9753): 1128.35 ± 0.18 kg/m3
- mass density (298.15 K, x1 = 0.9847): 1128.87 ± 0.18 kg/m3
- mass density (298.15 K, x1 = 0.9897): 1129.15 ± 0.18 kg/m3
- mass density (298.15 K, x1 = 0.9959): 1129.5 ± 0.19 kg/m3
- mass density (298.15 K, x1 = 1): 1129.73 ± 0.19 kg/m3
- mass density (308.15 K, x1 = 0.00244): 994.873 ± 0.046 kg/m3
- mass density (308.15 K, x1 = 0.00515): 995.763 ± 0.046 kg/m3
- mass density (308.15 K, x1 = 0.0086): 996.897 ± 0.045 kg/m3
- mass density (308.15 K, x1 = 0.02032): 1000.68 ± 0.044 kg/m3
- mass density (308.15 K, x1 = 0.03478): 1005.15 ± 0.047 kg/m3
- mass density (308.15 K, x1 = 0.04976): 1009.5 ± 0.05 kg/m3
- mass density (308.15 K, x1 = 0.06674): 1014.31 ± 0.053 kg/m3
- mass density (308.15 K, x1 = 0.08229): 1018.42 ± 0.055 kg/m3
- mass density (308.15 K, x1 = 0.1171): 1027.15 ± 0.062 kg/m3
- mass density (308.15 K, x1 = 0.1745): 1039.6 ± 0.07 kg/m3
- mass density (308.15 K, x1 = 0.2169): 1047.65 ± 0.076 kg/m3
- mass density (308.15 K, x1 = 0.2557): 1054.32 ± 0.081 kg/m3
- mass density (308.15 K, x1 = 0.3026): 1061.67 ± 0.087 kg/m3
- mass density (308.15 K, x1 = 0.351): 1068.41 ± 0.093 kg/m3
- mass density (308.15 K, x1 = 0.4027): 1074.96 ± 0.099 kg/m3
- mass density (308.15 K, x1 = 0.4487): 1080.22 ± 0.1 kg/m3
- mass density (308.15 K, x1 = 0.4886): 1084.37 ± 0.11 kg/m3
- mass density (308.15 K, x1 = 0.5601): 1091.28 ± 0.12 kg/m3
- mass density (308.15 K, x1 = 0.5916): 1094.1 ± 0.12 kg/m3
- mass density (308.15 K, x1 = 0.6674): 1100.24 ± 0.13 kg/m3
- mass density (308.15 K, x1 = 0.7066): 1103.2 ± 0.14 kg/m3
- mass density (308.15 K, x1 = 0.7495): 1106.15 ± 0.14 kg/m3
- mass density (308.15 K, x1 = 0.7931): 1109.09 ± 0.15 kg/m3
- mass density (308.15 K, x1 = 0.8601): 1113.29 ± 0.16 kg/m3
- mass density (308.15 K, x1 = 0.8996): 1115.65 ± 0.17 kg/m3
- mass density (308.15 K, x1 = 0.948): 1118.38 ± 0.17 kg/m3

Reference: the NIST ThermoML archive (doi:10.1021/acs.jced.6b00786)
